In US20120034193A1, “TREATMENT OF NEUROTROPHIC FACTOR MEDIATED DISORDERS” (priority 2009, published 2012):

Assays:
[1] = tested on: rat primary cortical neurones; assay: Pre-treatment against glutamate-induced damage (LDH) in cortical neurones; format: cell-based; conditions: for Neuronal survival (% of control): 24 h before and 24 h after glutamate 100 μM 10 min; for Toxicity at the plateau of activity: nanomolar concentration, cortical neurones in vitro
Method: Exposure of rat primary cortical neurones to glutamate increases lactate dehydrogenase (LDH) activity measured 24 h after glutamate exposure, indicating significant neuronal damage. Rat cortical neurones were cultured by modification of a method previously described (Singer, et al., Neuroscience Letters, 1996, 212, pp. 13-16). On day 10 of culture, the medium was changed to a serum-free defined medium. On day 12, the cultures were washed and placed for 24 h in fresh medium containing test compound or vehicle (DMSO, 0.25%). On day 13 neurones were exposed to glutamate (100 μM; 10 min) at 37° C. The cultures were then washed with, and placed in, fresh medium supplemented with test compound or vehicle for a further 24 h before LDH was measured. Neuronal damage was assessed by measuring LDH activity in the media at 24 h after glutamate exposure.

[2] = tested on: Rat dopaminergic neurones; assay: Pre-treatment against MPP+-induced loss of dopaminergic neurones; format: cell-based; conditions: 30 nM, 24 h before and during MPP+ 2 μM 48 h
Method: Rat dopaminergic neurones were cultured as previously described (Schinelli et al., Journal of Neurochemistry, 1988, 50, pp. 1900-1907). On day 5, the cultures were washed and placed in fresh medium containing test compounds (30 nM), vehicle (DMSO, 0.25%) or a combination of BDNF (1.85 nM) and GDNF (0.17 nM) for 24 h.
Exposure of rat primary dopaminergic neurones to MPP^+ (2 μM, 24 h) causes a significant decrease in the number of dopaminergic neurones compared to the control. On day 6, MPP^+ (2 μM) was added to the cultures in the presence of test compounds, vehicle or a combination of BDNF and GDNF for a further 48 h. MPP^+ induces neuronal death, via inhibition of complex I in the mitochondria and consequent ATP depletion, resulting in the production of free radicals and induction of apoptosis. After the incubation period, the cultures were fixed with paraformaldehyde in PBS (4%). After fixation, the neurones were permeabilised with Triton ×100 (0.05%) for 30 min. The neurones were then incubated with anti-tyrosine hydroxylase (TH) at 37° C. for 2 h. The neurones were washed three times with PBS, and then incubated with goat anti mouse/Cy3 for 2 h at 37° C. The neurones were mounted and examined with the fluorescence microscopy.

Rat cortical neurones = assay: Neuritogenesis in cortical neurones; format: cell-based; conditions: 3 nM, 24 h; for Neurones displaying neurites (%): control 39.35 ± 2.06
Method: Rat cortical neurones were cultured by modification of a previously described method (Singer, et al., Neuroscience Letters, 1996, 212, pp. 13-16). Cells were cultured with sarsasapogenin, smilagenin, vehicle (DMSO 0.25%), GDNF, BDNF or NGF for 24 h. For each group, 15 pictures showing neurones displaying neurites were selected at random in each field, and for each neurone the longest neurite was measured. The neurite number was measured by counting the number of neurones displaying neurites, the number of neurones not displaying neurites and the number of total neurones in each field. Six fields per well were examined.
The results are shown in Table 15 below, expressed as the number of neurones with neurites per field as a percentage of the total number of neurones per field.

Rat sensory neurones = assay: Neuronal survival in sensory neurones; format: cell-based, Wistar rat; conditions: 0.2 nM, 2 days
Method: Rat sensory neurones were obtained from Wistar rat embryos on the 15th day of gestation. Cells were cultured at 37° C. in 5% CO2/95% air atmosphere. Following 2 days of culturing with sarsasapogenin, smilagenin, vehicle (DMSO, 0.25%) or NGF, sensory neurones were rinsed twice with PBS and fixed in paraformaldehyde (4%) in PBS for 30 min at 4° C. Cells were permeabilised with Triton X-100 (0.1%) and non-specific sites were saturated using foetal bovine serum. Prior to staining, cells were incubated for 2 h at room temperature with a mixture of primary antibodies: anti-neurofilament 68 and 200 in PBS containing foetal bovine serum 5%. Prior to washing, slides were demounted and the cells were washed twice with PBS for 5 min, placed in a dark room for 1 h and incubated with a secondary antibody: anti-mouse coupled with cyanine 3 (Cy3; 1/1600) and an anti-rabbit coupled with fluoroisothiocyanate (FITC; 1/200) in PBS containing foetal bovine serum (5%). Slides were washed twice with PBS for 5 min and mounted on coverslips using Mowiol, an antioxidative solution (9% w/v) in glycerol (22%) buffered with Tris/HCl ([…]; pH 8.5). Slides were left overnight at room temperature to harden and stored in light protected conditions. Slides were viewed using a DAPI/FITC/Cy3 triple filter microscope with a ×20 objective. A series of photographs per well were taken at random using a digital camera.

pmn mice = conditions: literature (Sagot et al. 1996); cited from earlier work

Molecule | Neuronal survival (% of control) ([1]; 1 nM) | Neuronal survival (% of control) ([1]; 3 nM) | Neuronal survival (% of control) ([1]; 10 nM) | Neuronal survival (% of control) ([1]; 30 nM) | Neuronal survival (% of control) ([1]; 100 nM) | Toxicity at the plateau of activity [1] | Neuronal survival (% of control) [2] | Neuronal survival (% of control) ([1]; 300 nM) | Neurite length (% of control) (Rat cortical neurones) | Neurones displaying neurites (%) (Rat cortical neurones) | Neuronal survival (% of control) (Rat sensory neurones) | Motor neurone survival and disease course in pmn mice (pmn mice)
C[C@H]1CC[C@@]2(OC1)O[C@H]1C[C@H]3[C@@H]4CC[C@@H]5C[C@H](O)CC[C@]5(C)[C@H]4CC[C@]3(C)[C@H]1[C@@H]2C [episarsasapogenin] | 84.79 ± 2.40 % of control | 80.39 ± 5.18 % of control | 83.80 ± 4.18 % of control | 87.17 ± 2.51 % of control | 86.42 ± 2.95 % of control | without causing any toxicity | 95.01 ± 4.52 % of control |  |  |  |  | 
C[C@@H]1CC[C@@]2(OC1)O[C@H]1C[C@H]3[C@@H]4CC[C@@H]5C[C@H](O)CC[C@]5(C)[C@H]4CC[C@]3(C)[C@H]1[C@@H]2C [epismilagenin] |  | 82.49 ± 3.93 % of control | 78.57 ± 2.15 % of control | 81.76 ± 2.09 % of control | 78.39 ± 1.75 % of control | without causing any toxicity | 115.12 ± 4.73 % of control | 78.86 ± 1.80 % of control |  |  |  | 
NGF: nerve growth factor |  |  |  |  |  |  |  |  | 145.73 ± 5.13 % of control | 52.59 ± 2.43 | 151.50 ± 7.19 % of control | 
GDNF: glial-derived neurotrophic factor (protein, UniProt P39905 78-211, looked up) Glial cell line-derived …: SPDKQMAVLPRRERNRQAAAANPENSRGKGRRGQRGKNRGCVLTAIHLNVTDLGLGYETKEELIFRYCSGSCDAAETTYDKILKNLSRNRRLVSDKVGQACCRPIAFDDDLSFLDDNLVYHILRKHSAKRCGCI |  |  |  |  |  |  |  |  | 125.30 ± 4.18 % of control | 55.72 ± 1.98 |  | improved the motor neurone survival but did not slow down the disease
